{"source": "patent US20090203785A1", "about": "“METHOD AND PROCESS FOR PRODUCING YOUTHFUL-APPEARING, SMALL-PORED, AND SMOOTH SKIN” (priority 2002, published 2009)", "test_system": "acne vulgaris", "assay": "topical retinoic acid plus laser-induced explosion of carbon particles on the skin of a patient with acne vulgaris (FIG. 4)", "format": "in vivo", "settings": "combination with exploding carbon particles (Q-switched laser); after first six months of treatment; one patient", "excerpt": "In the first step 40, pre-treatment is initiated with topical retinoic acid applied to the skin at least twice per week. The concentration of retinoic acid in the topical formulation is between about 0.05% to 1% preferably about 0.1%. […] In the next step 41, a solution of carbon particles in baby oil is applied to the skin. The carbon particle-oil ratio may range from about 1:1 to 1:9, preferably 1:4, i.e., about 25 percent carbon particles suspended in about 75 percent oil by weight. In the next steps 42 and 43 a laser beam is scanned over the skin treated with the carbon particle solution so as to clean substantially all of the carbon particles from the skin surface by exploding or fracturing the carbon particles. This scanning process takes from about 2 to 10 minutes to complete on the face, usually about 4 minutes, exposing the carbon particles only to 1 or 2 pulses of laser light.\nThe wave length of the radiation may range from about 800 nM to 1200 nM, preferably about 1064 nM. The frequency of the pulses from the laser range from about 1 to 20 per second, preferably, about 10 per second. The duration of each pulse ranges from about 0.001 to 1 microseconds, preferably about 0.1 microseconds. The fluence or exposure of the skin treated with the carbon particles ranges from about 1 to 3 J/cm^2. […]"}
{"molecule": "CC1=C(/C=C/C(C)=C/C=C/C(C)=C/C(=O)O)C(C)(C)CCC1", "note": "[retinoic acid]", "values": [{"measurement": "state of the epidermis / stratum corneum after treatment", "result": "leaving the epidermis intact and normal, with no removal of stratum corneum"}]}
